Measurements published in the supplement of paper PMC11061612.

Tests used:
[1] = tested on: DEL (T-Cell Non-Hodgkin's Lymphoma); assay: Bliss excess, mean over the matrix (fraction); higher = more synergy
Outline: (§1)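 Cell lines in DMEM/F12 or RPMI with 10% FBS were plated in 1536-well plates, held 24 hours at 37°C, 5% CO2, then given two-drug dose matrices for 72 hours (DMSO typically 0.2%). Viability was read by CellTiter-Glo 2.0 luminescence and scaled as inhibition from 0 (vehicle wells) to 1 (blank wells). Combination Emax is the second-highest inhibition in the matrix; Bliss excess is observed combination effect minus expected EA + EB − EA·EB, EA and EB being single-agent effects.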

[2] = tested on: DoTc2-4510 (Cervical Carcinoma); assay: as above
Outline: as §1

[3] = tested on: Hs-578-T (Breast Carcinoma); assay: as above
Outline: as §1

[4] = tested on: KELLY (Neuroblastoma); assay: as above
Outline: as §1

[5] = tested on: KURAMOCHI (Ovarian Carcinoma); assay: as above
Outline: as §1

[6] = tested on: LB831-BLC (Bladder Carcinoma); assay: as above
Outline: as §1

[7] = tested on: LU-135 (Small Cell Lung Carcinoma); assay: as above
Outline: as §1

[8] = tested on: ME-1 (Acute Myeloid Leukemia); assay: as above
Outline: as §1

[9] = tested on: NB10 (Neuroblastoma); assay: as above
Outline: as §1

[10] = tested on: NOS-1 (Osteosarcoma); assay: as above
Outline: as §1

[11] = tested on: OVCA420 (Ovarian Carcinoma); assay: as above
Outline: as §1

[12] = tested on: RC-K8 (B-Cell Non-Hodgkin's Lymphoma); assay: as above
Outline: as §1

[13] = tested on: RO82-W-1 (Thyroid Gland Carcinoma); assay: as above
Outline: as §1

[14] = tested on: T98G (Glioblastoma); assay: as above
Outline: as §1

[15] = tested on: CaR-1 (Colorectal Carcinoma); assay: combination Emax (second highest fraction inhibited in the dose matrix, 72 h); higher = more inhibition; extreme values may be limits of the assay
Outline: as §1

[16] = tested on: HOS (Osteosarcoma); assay: as above
Outline: as §1

[17] = tested on: HT-1376 (Bladder Carcinoma); assay: as above
Outline: as §1

[18] = tested on: KYSE-520 (Esophageal Squamous Cell Carcinoma); assay: as above
Outline: as §1

[19] = tested on: NCI-H82 (Small Cell Lung Carcinoma); assay: as above
Outline: as §1

[20] = tested on: SK-ES-1 (Ewing's Sarcoma); assay: as above
Outline: as §1
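For Bliss excess, mean over the matrix in this document: after 72 h of two-drug dosing.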

Structure (SMILES)	Bliss excess [1]	Bliss excess [2]	Bliss excess [3]	Bliss excess [4]	Bliss excess [5]	Bliss excess [6]	Bliss excess [7]	Bliss excess [8]	Bliss excess [9]	Bliss excess [10]	Bliss excess [11]	Bliss excess [12]	Bliss excess [13]	Bliss excess [14]	combination Emax [15]	combination Emax [16]	combination Emax [17]	combination Emax [18]	combination Emax [19]	combination Emax [20]
CN(C)CCCOc1ccc(-c2ccc3ncc4c(c3c2)n(C2CCOCC2)c(=O)n4C)cn1 [AZD0156] + O=C(c1cc(Cc2n[nH]c(=O)c3ccccc23)ccc1F)N1CCN(C(=O)C2CC2)CC1 [Olaparib] (first compound max 3 µM, partner max 3 µM)	0.312	-0.043	0.0937	0.0009	-0.0737	-0.0407	0.0632	-0.0065	0.334	0.0594	0.0121	-0.0046	-0.0299	-0.0085	0.207	0.241	0.115	0.324	0.382	0.804
C=CCn1c(=O)c2cnc(Nc3ccc(N4CCN(C)CC4)cc3)nc2n1-c1cccc(C(C)(C)O)n1 [AZD1775] + C1CN(CCC1(C(=O)N[C@@H](CCO)C2=CC=C(C=C2)Cl)N)C3=NC=NC4=C3C=CN4 [Capivasertib] (first compound max 3 µM, partner max 3 µM)	0.0666	0.0408	-0.102	-0.0393	-0.072	-0.0434	0.0467	-0.0726	-0.18	0.0118	-0.0518	-0.002	-0.0678	0.0076	0.69	0.831	0.355	0.598	0.884	0.883
COc1nnc2ccc(N3CCC(c4ccc(OCCN5CCN(C)C(=O)[C@H]5C)cc4)CC3)nn12 [AZD5153] + CN(CC[C@H](CSC1=CC=CC=C1)NC2=C(C=C(C=C2)S(=O)(=O)NC(=O)C3=CC=C(C=C3)N4CCC(CC4)[C@H](C5=CC=CC=C5C6=CC=C(C=C6)Cl)O)S(=O)(=O)C(F)(F)F)CCO [AZD4320] (first compound max 1 µM, 7x7, partner max 1 µM)	0.0204						0.0221			0.044	-0.0203	-0.0145						0.58		0.871
Cc1c2c(nn1C)CSCc1cc(n(C)n1)CSc1cc(c3ccccc3c1)OCCCc1c(C(=O)O)n(C)c3c-2c(Cl)ccc13 [AZD5991] + C=CCn1c(=O)c2cnc(Nc3ccc(N4CCN(C)CC4)cc3)nc2n1-c1cccc(C(C)(C)O)n1 [AZD1775] (first compound max 1 µM, partner max 1 µM)	-0.0201	-0.0399	-0.0244	0.0322	-0.0346	-0.0044	-0.0654	0.041	-0.0441		-0.0002	-0.0294	-0.0197	-0.0198	0.283	0.432	0.459		0.966	0.985
Cc1c2c(nn1C)CSCc1cc(n(C)n1)CSc1cc(c3ccccc3c1)OCCCc1c(C(=O)O)n(C)c3c-2c(Cl)ccc13 [AZD5991] + Cc1cc2ncnn2cc1Nc1ncc2c(n1)n(C1CCOCC1)c(=O)n2C [AZD7648] (first compound max 1 µM, 7x7, partner max 10 µM)	0.0005		-0.0058	-0.0368	-0.0228	-0.034	-0.0237	0.013	0.0047	0.0112	-0.0531	0.0148	-0.0503	-0.0663	0.277	0.287	0.221	0.365	0.927	0.813
COc1cccc2c1C(=O)c1c(O)c3c(c(O)c1C2=O)C[C@@](O)(C(=O)CO)C[C@@H]3O[C@H]1C[C@H](N)[C@H](O)[C@H](C)O1 [Doxorubicin] + Cc1cc2ncnn2cc1Nc1ncc2c(n1)n(C1CCOCC1)c(=O)n2C [AZD7648] (first compound max 1 µM, 7x7, partner max 10 µM)	0.0935	0.0248	0.0412	0.0411	0.0251	0.0858	0.0388	0.027	0.0799	0.0202	0.0022		-0.0346	0.0257	0.807	0.972	0.182	0.295	0.949	0.983
CC(=O)c1c(C)c2cnc(Nc3ccc(N4CCNCC4)cn3)nc2n(C2CCCC2)c1=O [Palbociclib] + CN(CC[C@H](CSC1=CC=CC=C1)NC2=C(C=C(C=C2)S(=O)(=O)NC(=O)C3=CC=C(C=C3)N4CCC(CC4)[C@H](C5=CC=CC=C5C6=CC=C(C=C6)Cl)O)S(=O)(=O)C(F)(F)F)CCO [AZD4320] (first compound max 10 µM, 7x7, partner max 1 µM)	-0.0135						0.0316			0.0414	-0.0591	0.0351						0.477		0.956
COc1cccc(OCCCN)c1-c1cc(Nc2cnc(C#N)cn2)n[nH]1 [Prexasertib] + C=CCn1c(=O)c2cnc(Nc3ccc(N4CCN(C)CC4)cc3)nc2n1-c1cccc(C(C)(C)O)n1 [AZD1775] (first compound max 1 µM, partner max 1 µM)	0.0279	0.048	-0.0242	0.0252	0.0282	0.168	-0.0004	0.0408	0.13	0.0924	0.0044		-0.126	-0.0232	0.797	0.97	0.422	0.735	0.996	1
